Reference: the NIST ThermoML archive (doi:10.1021/acs.jced.8b00132)
Several values for one entry are separate records, joined by “and”; a condition that tells them apart may be missing. Equal values may be shown once.

O=C(C(F)(F)C(F)(F)F)C(F)(C(F)(F)F)C(F)(F)F [dodecafluoro-2-methylpentan-3-one]
Details | thermal conductivity
402.37 K, 306 kPa, Gas, hot wire | 0.0201 W/m/K
402.38 K, 27 kPa, Gas, hot wire | 0.01858 W/m/K
402.38 K, 306 kPa, Gas, hot wire | 0.02016 W/m/K
402.44 K, 159 kPa, Gas, hot wire | 0.01917 W/m/K and 0.01915 W/m/K
402.45 K, 445 kPa, Gas, hot wire | 0.02064 W/m/K
402.47 K, 444 kPa, Gas, hot wire | 0.02039 W/m/K
402.49 K, 306 kPa, Gas, hot wire | 0.02022 W/m/K and 0.02027 W/m/K
402.5 K, 27 kPa, Gas, hot wire | 0.01866 W/m/K and 0.01864 W/m/K
402.57 K, 160 kPa, Gas, hot wire | 0.01916 W/m/K
402.57 K, 161 kPa, Gas, hot wire | 0.0192 W/m/K
402.57 K, 444 kPa, Gas, hot wire | 0.02075 W/m/K
402.59 K, 443 kPa, Gas, hot wire | 0.02053 W/m/K
402.62 K, 305 kPa, Gas, hot wire | 0.02031 W/m/K and 0.02029 W/m/K
402.63 K, 27 kPa, Gas, hot wire | 0.01867 W/m/K
402.64 K, 27 kPa, Gas, hot wire | 0.01862 W/m/K
402.68 K, 835 kPa, Gas, transient hot wire | 0.02013 W/m/K
402.69 K, 441 kPa, Gas, hot wire | 0.02089 W/m/K
402.69 K, 442 kPa, Gas, hot wire | 0.02089 W/m/K
402.69 K, 835 kPa, Gas, transient hot wire | 0.02007 W/m/K
402.71 K, 162 kPa, Gas, hot wire | 0.01917 W/m/K
402.71 K, 163 kPa, Gas, hot wire | 0.01926 W/m/K
402.74 K, 305 kPa, Gas, hot wire | 0.02049 W/m/K
402.74 K, 747 kPa, Gas, transient hot wire | 0.01986 W/m/K
402.74 K, 748 kPa, Gas, transient hot wire | 0.01986 W/m/K
402.75 K, 305 kPa, Gas, hot wire | 0.02035 W/m/K
402.78 K, 27 kPa, Gas, hot wire | 0.01867 W/m/K and 0.01858 W/m/K
402.81 K, 608 kPa, Gas, transient hot wire | 0.01959 W/m/K
402.81 K, 609 kPa, Gas, transient hot wire | 0.01955 W/m/K
402.85 K, 164 kPa, Gas, hot wire | 0.01925 W/m/K and 0.01927 W/m/K
402.87 K, 447 kPa, Gas, transient hot wire | 0.01955 W/m/K
402.87 K, 448 kPa, Gas, transient hot wire | 0.01962 W/m/K
402.87 K, 836 kPa, Gas, transient hot wire | 0.02025 W/m/K
402.88 K, 836 kPa, Gas, transient hot wire | 0.0203 W/m/K
402.91 K, 746 kPa, Gas, transient hot wire | 0.01994 W/m/K
402.92 K, 307 kPa, Gas, transient hot wire | 0.01967 W/m/K
402.92 K, 746 kPa, Gas, transient hot wire | 0.01998 W/m/K
402.93 K, 27 kPa, Gas, hot wire | 0.01857 W/m/K and 0.01866 W/m/K
403 K, 607 kPa, Gas, transient hot wire | 0.01962 W/m/K and 0.01975 W/m/K
403.05 K, 836 kPa, Gas, transient hot wire | 0.02051 W/m/K
403.06 K, 836 kPa, Gas, transient hot wire | 0.02049 W/m/K
403.07 K, 447 kPa, Gas, transient hot wire | 0.01962 W/m/K
403.08 K, 446 kPa, Gas, transient hot wire | 0.01959 W/m/K
403.1 K, 744 kPa, Gas, transient hot wire | 0.02004 W/m/K
403.1 K, 745 kPa, Gas, transient hot wire | 0.02014 W/m/K
403.12 K, 306 kPa, Gas, transient hot wire | 0.01974 W/m/K
403.12 K, 307 kPa, Gas, transient hot wire | 0.01974 W/m/K
403.2 K, 605 kPa, Gas, transient hot wire | 0.01971 W/m/K
403.21 K, 606 kPa, Gas, transient hot wire | 0.01981 W/m/K
403.25 K, 836 kPa, Gas, transient hot wire | 0.02071 W/m/K
403.25 K, 837 kPa, Gas, transient hot wire | 0.02072 W/m/K
403.28 K, 445 kPa, Gas, transient hot wire | 0.01961 W/m/K
403.3 K, 445 kPa, Gas, transient hot wire | 0.01958 W/m/K
403.33 K, 744 kPa, Gas, transient hot wire | 0.02022 W/m/K
403.34 K, 306 kPa, Gas, transient hot wire | 0.01976 W/m/K
403.34 K, 743 kPa, Gas, transient hot wire | 0.02024 W/m/K
403.35 K, 306 kPa, Gas, transient hot wire | 0.01972 W/m/K
403.41 K, 605 kPa, Gas, transient hot wire | 0.01984 W/m/K
403.42 K, 604 kPa, Gas, transient hot wire | 0.01984 W/m/K
403.51 K, 444 kPa, Gas, transient hot wire | 0.01967 W/m/K
403.53 K, 742 kPa, Gas, transient hot wire | 0.02037 W/m/K and 0.02041 W/m/K
403.54 K, 443 kPa, Gas, transient hot wire | 0.01965 W/m/K
403.57 K, 305 kPa, Gas, transient hot wire | 0.01974 W/m/K and 0.01978 W/m/K
403.63 K, 603 kPa, Gas, transient hot wire | 0.01991 W/m/K
403.64 K, 602 kPa, Gas, transient hot wire | 0.01991 W/m/K
403.75 K, 442 kPa, Gas, transient hot wire | 0.01972 W/m/K
403.76 K, 442 kPa, Gas, transient hot wire | 0.01971 W/m/K
403.81 K, 305 kPa, Gas, transient hot wire | 0.01987 W/m/K and 0.01988 W/m/K
416.35 K, 1171 kPa, Liquid, transient hot wire | 0.03902 W/m/K and 0.03885 W/m/K
416.51 K, 1171 kPa, Liquid, transient hot wire | 0.03892 W/m/K and 0.03904 W/m/K
416.67 K, 1170 kPa, Liquid, transient hot wire | 0.03901 W/m/K
416.68 K, 1170 kPa, Liquid, transient hot wire | 0.0389 W/m/K
416.69 K, 596 kPa, Gas, hot wire | 0.0223 W/m/K
416.7 K, 595 kPa, Gas, hot wire | 0.02228 W/m/K
416.78 K, 2205 kPa, Liquid, transient hot wire | 0.04062 W/m/K
416.79 K, 2206 kPa, Liquid, transient hot wire | 0.04049 W/m/K
416.8 K, 24840 kPa, Liquid, transient hot wire | 0.05568 W/m/K
416.81 K, 24844 kPa, Liquid, transient hot wire | 0.05562 W/m/K
416.81 K, 50957 kPa, Liquid, transient hot wire | 0.06585 W/m/K
416.82 K, 50950 kPa, Liquid, transient hot wire | 0.06577 W/m/K
416.86 K, 1170 kPa, Liquid, transient hot wire | 0.03904 W/m/K
416.87 K, 1131 kPa, Gas, transient hot wire | 0.02258 W/m/K
416.87 K, 1170 kPa, Liquid, transient hot wire | 0.03905 W/m/K
416.88 K, 16295 kPa, Liquid, transient hot wire | 0.0514 W/m/K
416.89 K, 590 kPa, Gas, hot wire | 0.02234 W/m/K
